Test results from patent US11225480B2, “Malic enzyme inhibitors” (SUN PHARMA ADVANCED RESEARCH COMPANY LTD, priority 2019, dated 2022).
Counter-ions that a name gives are not always drawn.

Assays:
Format in all cases: biochemical
human ME3 enzyme = biological target: T1, human ME3 enzyme (Homo sapiens, UniProt Q16798); assay: ME3 inhibition assay (diaphorase/resazurin coupled fluorescence); conditions: 10 μM compound concentration; read-out: Malic Enzyme 3 % inhibition (10 μM)
T1 sequence (Q16798 1-604): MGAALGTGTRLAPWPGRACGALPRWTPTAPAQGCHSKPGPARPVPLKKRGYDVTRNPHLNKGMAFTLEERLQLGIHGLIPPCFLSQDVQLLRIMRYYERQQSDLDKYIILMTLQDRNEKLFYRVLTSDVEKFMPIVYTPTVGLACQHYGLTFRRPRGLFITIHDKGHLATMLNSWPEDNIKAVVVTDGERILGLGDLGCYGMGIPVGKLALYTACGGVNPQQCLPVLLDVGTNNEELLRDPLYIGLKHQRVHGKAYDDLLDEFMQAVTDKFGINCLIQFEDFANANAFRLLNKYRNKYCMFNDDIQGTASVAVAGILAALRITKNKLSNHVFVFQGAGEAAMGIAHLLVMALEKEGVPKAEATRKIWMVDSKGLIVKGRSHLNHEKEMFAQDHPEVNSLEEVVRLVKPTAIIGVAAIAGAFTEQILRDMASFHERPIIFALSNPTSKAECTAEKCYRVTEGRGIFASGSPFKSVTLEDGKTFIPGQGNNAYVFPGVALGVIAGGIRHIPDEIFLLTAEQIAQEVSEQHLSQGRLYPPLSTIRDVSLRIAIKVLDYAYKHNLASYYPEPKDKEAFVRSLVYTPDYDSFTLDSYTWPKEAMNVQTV
How it was run: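 Coupled read-out: NADPH made by human ME3 (20 nM stock) drives diaphorase conversion of resazurin (50 μM) to resorufin; buffer 50 mM Tris-HCl pH 7.5, 10 mM MnCl2, 3 mM L-malate.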

human ME2 enzyme = human ME2 enzyme (Homo sapiens, UniProt P23368); assay: ME2 inhibition assay (diaphorase/resazurin coupled fluorescence); conditions: 10 μM compound concentration; read-out: Malic Enzyme 2 % inhibition (10 μM)
Chain of human ME2 enzyme (P23368 19-584): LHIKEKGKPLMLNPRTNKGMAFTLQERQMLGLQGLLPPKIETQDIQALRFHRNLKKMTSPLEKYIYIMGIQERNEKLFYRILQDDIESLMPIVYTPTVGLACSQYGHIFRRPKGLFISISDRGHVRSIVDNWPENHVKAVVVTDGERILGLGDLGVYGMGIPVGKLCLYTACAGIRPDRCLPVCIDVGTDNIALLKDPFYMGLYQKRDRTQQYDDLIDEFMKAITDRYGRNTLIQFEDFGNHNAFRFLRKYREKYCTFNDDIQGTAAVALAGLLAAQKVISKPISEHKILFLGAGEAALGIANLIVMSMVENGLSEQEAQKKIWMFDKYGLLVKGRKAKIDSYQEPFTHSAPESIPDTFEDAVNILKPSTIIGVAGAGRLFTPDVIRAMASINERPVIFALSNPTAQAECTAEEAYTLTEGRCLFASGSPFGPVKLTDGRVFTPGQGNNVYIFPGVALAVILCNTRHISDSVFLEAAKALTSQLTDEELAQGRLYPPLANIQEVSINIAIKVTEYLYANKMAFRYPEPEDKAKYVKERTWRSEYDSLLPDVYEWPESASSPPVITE
Description: (§1) ME2 catalyzes the oxidative decarboxylation of malate to pyruvate with conversion of the co-factor β-NAD+ to β-NADH. In the fluorescence assay, a coupled reaction is set up where in an enzyme, Diaphorase, utilizes NADH generated by ME2, to convert the dye resazurin to a fluorescent molecule resorufin. Resorufin has a characteristic fluorescence with excitation/emission at 540/600 nm (SLAS Discov., 2017 April 1:2472555217706649).
The enzyme activity inhibition assay is set up in a 200 μL final reaction volume in a 96-well plate. As per the experimental design, 2 μL of the compounds at 100× the desired concentration (10 μM) in DMSO were added to the respective wells with 178 μL of assay buffer (50 mM Tris-HCl pH 7.5, 10 mM MnCl2, 7 mM L-malate, 50 μM Resazurin and 0.025 mg/ml Diapharose). The 96-well plate was incubated on a plate shaker at room temperature for 15 minutes protected from light. The well contents were gently mixed by adding 10 μL of 60 nM human ME2 enzyme to the wells and the plate was incubated on a shaker at room temperature for 5 minutes protected from light. Suitable ‘enzyme only’ and ‘no enzyme’ controls were included in the experiment. The enzymatic reaction was started by adding 10 μL of 2 mM β-NAD+. The reaction was gently mixed and the plate was initially left on a shaker at room temperature for −7 minutes protected from light. Later, the plate was incubated without shaking at room temperature for 2 hours. At the end of 2 hours, the fluorescence of the wells was measured at excitation 540 nm and emission 600 nm. The % enzyme activity of the compounds is obtained by normalizing the data with enzyme only (100%) and no enzyme controls (0%) using GraphPad Prism software 7.04.

human ME1 enzyme = biological target: T2, human ME1 enzyme (Homo sapiens, UniProt P48163); assay: ME1 inhibition assay (diaphorase/resazurin coupled fluorescence); conditions: 10 μM compound concentration; read-out: Malic Enzyme 1 % inhibition (10 μM)
T2 sequence (P48163 1-572): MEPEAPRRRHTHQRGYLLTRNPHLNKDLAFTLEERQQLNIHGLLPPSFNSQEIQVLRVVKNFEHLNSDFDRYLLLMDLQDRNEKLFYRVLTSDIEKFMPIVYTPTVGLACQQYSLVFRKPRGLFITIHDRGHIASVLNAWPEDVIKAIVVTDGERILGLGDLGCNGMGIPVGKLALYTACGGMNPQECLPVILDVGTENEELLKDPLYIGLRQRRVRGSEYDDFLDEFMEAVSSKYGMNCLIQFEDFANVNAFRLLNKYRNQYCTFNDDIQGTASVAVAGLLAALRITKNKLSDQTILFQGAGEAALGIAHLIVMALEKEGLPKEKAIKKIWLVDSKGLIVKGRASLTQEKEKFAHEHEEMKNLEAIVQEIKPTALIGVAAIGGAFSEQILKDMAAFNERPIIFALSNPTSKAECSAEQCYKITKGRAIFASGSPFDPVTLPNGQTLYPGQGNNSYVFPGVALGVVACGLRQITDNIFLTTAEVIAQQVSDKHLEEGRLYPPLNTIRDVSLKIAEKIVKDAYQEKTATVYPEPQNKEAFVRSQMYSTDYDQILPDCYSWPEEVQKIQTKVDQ
Description: as §1, with “ME1” for “ME2”, “β-NADP+” for “β-NAD+”, “β-NADPH.” for “β-NADH.”, “NADPH” for “NADH”, “ME1,” for “ME2,”
The enzyme activity inhibition assay is set up in a 200 μL final reaction volume in a 96-well plate. As per the experimental design, 2 μL of the compounds at 100× the desired concentration (10 μM) in DMSO were added to the respective wells with 178 μL of assay buffer (50 mM Tris-HCl pH 7.5, 10 mM MnCl2, 2 mM L-malate, 10 μM Resazurin and 0.01 mg/ml Diapharose). The 96-well plate was incubated on a plate shaker at room temperature for 15 minutes protected from light. The well contents were gently mixed by adding 10 μL of 20 nM human ME1 enzyme to the wells and the plate was incubated on a shaker at room temperature for 5 minutes protected from light. Suitable ‘enzyme only’ and ‘no enzyme’ controls were included in the experiment. The enzymatic reaction was started by adding 10 μL of 0.3 mM D-NADP+. The reaction was gently mixed and the plate was initially left on a shaker at room temperature for −7 minutes protected from light. Later, the plate was incubated without shaking at room temperature for 2 hours. At the end of 2 hours, the fluorescence of the wells was measured at excitation 540 nm and emission 600 nm. The % enzyme activity of the compounds is obtained by normalizing the data with enzyme only (100%) and no enzyme controls (0%) using GraphPad Prism software 7.04.

| SMILES | inhibition at 10 µM (human ME3 enzyme) [%] | inhibition at 10 µM (human ME2 enzyme) [%] | inhibition at 10 µM (human ME1 enzyme) [%] |
| --- | --- | --- | --- |
| O=C(O)c1cccc(-c2cc(C(=O)N3CCN(c4ccc(O)cc4)CC3)ccn2)c1 [I.39, 3-[4-[4-(4-Hydroxy-phenyl)-piperazine-1-carbonyl]-2-pyridyl]-benzoic acid] | > 90 | > 90 | > 90 |
| Cn1cc(C(=O)N2CCN(c3ccc(O)cn3)CC2)c(=O)c2ccccc21 [I.69, 3-[4-(5-Hydroxy-2-pyridyl)-piperazine-1-carbonyl]-1-methyl-quinolin-4-one] | > 90 | 70 to 89 | 70 to 89 |
| O=C(c1c[nH]c2ccccc12)N1CCN(c2ccc(O)cc2)CC1 [I.2] | > 90 | > 90 | > 90 |
| O=C(Cc1c[nH]c2ccc(F)cc12)N1CCN(c2ccc(O)cc2)CC1 [I.150, 2-(5-fluoro-1H-indol-3-yl)-1-[4-(4-hydroxy-phenyl)-piperazin-1-yl]-ethanone] | > 90 | > 90 | > 90 |
| O=C(c1c[nH]c2ccccc12)N1CCN(c2ccc(O)cn2)CC1 [I.43, [4-(5-Hydroxy-pyridin-2-yl)-piperazin-1-yl]-(1H-indol-3-yl)-methanone] | > 90 | 50 to 69 | > 90 |
| C=CC(=O)NC(CC(=O)N1CCN(c2ccc(O)cn2)CC1)c1ccccc1 (stereo not drawn) [I.172, N-{3-[4-(5-Hydroxy-pyridin-2-yl)-piperazin-1-yl]-3-oxo-1-phenyl-propyl}-acrylamide] | > 90 | > 90 | 50 to 69 |
| O=C(Cc1c[nH]c2cc(F)c(F)cc12)N1CCN(c2ccc(O)cn2)CC1 [I.160, 2-(5,6-Difluoro-1H-indol-3-yl)-1-[4-(5-hydroxy-pyridin-2-yl)-piperazin-1-yl]-ethanone] | > 90 | > 90 | > 90 |
| O=C(CC(O)c1ccccc1)N1CCN(c2ccc(O)cn2)CC1 (stereo not drawn) [I.130, 3-Hydroxy-1-[4-(5-hydroxy-pyridin-2-yl)-piperazin-1-yl]-3-phenyl-propan-1-one] | > 90 | > 90 | 70 to 89 |
| O=C(C1CC(O)(c2ccccc2)C1)N1CCN(c2ccc(O)cn2)CC1 (stereo not drawn) [I.124, (3-Hydroxy-3-phenylcyclo-butyl)-[4-(5-hydroxy-pyridin-2-yl)-piperazin-1-yl]-methanone] | > 90 | > 90 | > 90 |
| O=C(c1c[nH]c2ccccc2c1=O)N1CCN(c2ccc(O)cn2)CC1 [I.54, 3-[4-(5-Hydroxy-2-pyridyl)-piperazine-1-carbonyl]-1H-quinolin-4-one] | > 90 | 50 to 69 | 70 to 89 |
| O=C(CCc1ccccc1C(F)(F)F)N1CCN(c2ccc(O)cn2)CC1 [I.128, 1-[4-(5-Hydroxy-pyridin-2-yl)-piperazin-1-yl]-3-(2-trifluoro-methylphenyl)-propan-1-one] | > 90 | > 90 | > 90 |
| COc1ccc(C(=CC(=O)N2CCN(c3ccc(O)cn3)CC2)c2ccc(OC)cc2)cc1 [I.84, 1-[4-(5-Hydroxy-2-pyridyl)-piperazin-1-yl]-3,3-bis(4-methoxy-phenyl)-prop-2-en-1-one] | > 90 | 70 to 89 | 70 to 89 |
| O=C(C1CC(c2ccccc2)C1)N1CCN(c2ccc(O)cn2)CC1 (stereo not drawn) [I.134, [4-(5-Hydroxy-pyridin-2-yl)-piperazin-1-yl]-(3-phenyl-cyclobutyl)-methanone] | > 90 | > 90 | > 90 |
| Cc1cc(F)ccc1CCC(=O)N1CCN(c2ccc(O)cn2)CC1 [I.145, 3-(4-Fluoro-2-methyl-phenyl)-1-[4-(5-hydroxy-pyridin-2-yl)-piperazin-1-yl]-propan-1-one] | > 90 | > 90 | > 90 |
| O=C(CCCCc1ccccc1)N1CCN(c2ccc(O)cn2)CC1 [I.68, 1-[4-(5-Hydroxy-pyridin-2-yl)-piperazin-1-yl]-5-phenylpentan-1-one hydrochloride] | > 90 | 70 to 89 | > 90 |
| O=C(CCc1c(F)cccc1F)N1CCN(c2ccc(O)cn2)CC1 [I.157, 3-(2,6-Difluoro-phenyl)-1-[4-(5-hydroxy-pyridin-2-yl)-piperazin-1-yl]-propan-1-one] | > 90 | > 90 | > 90 |
| O=C(Cc1ccccc1)N1CCN(c2ccc(O)cc2)CC1 [I.1, 1-[4-(4-hydroxyphenyl)piperazin-1-yl]-2-phenylethanone] | > 90 | > 90 | > 90 |
| O=C(CNC12CC3CC(CC(C3)C1)C2)N1CCN(c2ccc(O)cn2)CC1 [I.83, 2-(1-Adamantyl-amino)-1-[4-(5-hydroxy-2-pyridyl)-piperazin-1-yl]ethanone] | > 90 | 50 to 69 | 50 to 69 |
| Cn1cc(CC(=O)N2CCN(c3ccc(O)cn3)CC2)c2cc(F)ccc21 [I.165, 2-(5-Fluoro-1-methyl-indol-3-yl)-1-[4-(5-hydroxy-pyridin-2-yl)-piperazin-1-yl]-ethanone] | > 90 | > 90 | > 90 |
| O=C(CCn1cnc2ccccc21)N1CCN(c2ccc(O)cn2)CC1 [I.136, 3-Benzo-imidazol-1-yl-1-[4-(5-hydroxy-pyridin-2-yl)-piperazin-1-yl]-propan-1-one] | > 90 | > 90 | 70 to 89 |
